# Assay results taken from US20040023972A1, “Use of substituted imidazo[1,2-a]-pyridin-, -pyrimidin-and-pyrazin-3-yl-amine derivatives in the preparation of medicaments for inhibiting NOS” (Gruenenthal GmbH, priority 2000, published 2004).
# Target: T1, NO synthase (Rattus norvegicus, UniProt P29476)
# T1 construct: the supernatant was then removed by decantation and frozen in portions at −80° C; from tissue; host or cells: rat cerebellum, 20,000 g supernatant of homogenate
# Assay: HTS-NOS assay (NOS assay): conversion of radioactive arginine, cation-exchanger filter plate
# Type: biochemical
# Details: 10 μM
# In short: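 Percent inhibition was derived by comparing remaining radioactive arginine with compound-free controls. Arginine retained on phosphate cation-exchanger filters was counted after citrulline washout, following a 5-60 min room-temperature (25 °C) reaction of labelled arginine, NADPH-containing medium and rat cerebellar homogenate supernatant.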
row,SMILES,HTS-NOS assay: % inhibition (10 μM)
1,"C#[N+]CCCCCCNc1c(-c2ccco2)nc2cc(C)cc(C)n12 [Example 45, [6-(2-Furan-2-yl-5,7-dimethyl-imidazo[1,2-a]pyridin-3-ylamino)-hexyl]-methylidyne-ammonium]",54%
2,"CC(=O)OCc1ccc(-c2nc3cc(C)cc(C)n3c2N(C(C)=O)c2c(C)cccc2C)o1 [Example 243, acetic acid 5-{3-[acetyl-(2,6-dimethyl-phenyl)-amino]-5,7-dimethyl-imidazo[1,2-a]pyridin-2-y}-furan-2-yl methyl ester]",62%

# Same assay, conditions: Table 5; concentration not given
row,NOS assay % inhibition,SMILES
1,45%,"Cc1ccn2c(NCc3ccccc3)c(-c3ccsc3)nc2c1.Cl [Example 309, Benzyl-(7-methyl-2-thiophen-3-yl-imidazo-[1,2-a]pyridin-3-yl)-amine hydrochloride]"

# Same assay, conditions: Table 5; concentration not given; hydrochloride
row,NOS assay % inhibition,SMILES
1,52%,"Cc1cc(C)n2c(NC3CCCCC3)c(-c3ccoc3)nc2c1.Cl [Example 310, Cyclohexyl-(2-furan-3-yl-5,7-dimethyl-imidazo-[1,2-a]pyridin-3-yl)-amine hydrochloride]"

# Same assay, conditions: read-out: HTS-NOS assay: % inhibition (10 μM)
row,inhibition at 10 µM,SMILES
1,59%,"Cc1ccn2c(NC(C)(C)C)c(-c3cccc(O)c3)nc2c1 [Example 24, 3-(3-Tert-butylamino-7-methyl-imidazo[1,2-a]pyridin-2-yl)-phenol]"
2,58%,"CC(=O)N(c1c(C)nc2cc(C)ccn12)C(C)(C)CC(C)(C)C [Example 250, N-(2,7-dimethyl-imidazo[1,2-a]pyridin-3-yl)-N-(1,1,3,3-tetramethyl-butyl)-acetamide]"
3,59%,"Cc1ccn2c(NC(C)(C)CC(C)(C)C)c(-c3cccnc3)nc2c1 [Example 15, (7-Methyl-2-pyridin-3-yl-imidazo[1,2-a]-pyridin-3-yl)-(1,1,3,3-tetramethyl-butyl)-amine]"
4,52%,"CCc1ccn2c(Nc3ccc(F)c(Cl)c3)c(-c3ccc(-c4cccc(Cl)c4)o3)nc2c1 [Example 320, (3-Chloro-4-fluorophenyl)-{2-[5-(3-chloro-phenyl)-furan-2-yl]-7-ethyl-imidazo[1,2-a]-pyridin-3-yl}-amine]"
5,74%,"Cc1ccn2c(NC3CCCCC3)c(-c3cccnc3)nc2c1 [Example 23, Cyclohexyl-(7-methyl-2-pyridin-3-yl-imidazo[1,2-a]pyridin-3-yl)-amine]"
6,52%,"CC(=O)N(c1c(C)cccc1C)c1c(-c2cc3ccccc3o2)nc2cc(C)ccn12 [Example 239, N-(2-benzofuran-2-yl-7-methyl-imidazo[1,2-a]pyridin-3-yl)-N-(2,6-dimethylphenyl)-acetamide]"
7,50%,"CCCCNc1c(-c2ccc(Cl)cc2Cl)nc2ccc(C)cn12 [Example 135, Butyl-[2-(2,4-dichloro-phenyl)-6-methyl-imidazo[1,2-a]pyridin-3-yl]-amine]"
8,50%,"COC(=O)CN(C(C)=O)c1c(-c2ccccc2C)nc2cnccn12 [Example 276, [acetyl-(2-o-tolyl-imidazo[1,2-a]pyrazin-3-yl)-amino]-acetic acid methyl ester]"
9,54%,"CC(=O)N(c1c(-c2ccco2)nc2cc(C)ccn12)C1CCCCC1 [Example 262, N-cyclohexyl-N-(2-furan-2-yl-7-methyl-imidazo[1,2-a]pyridin-3-yl)-acetamide]"
10,50%,"Cc1ccn2c(NC3CCCCC3)c(-c3ccccc3Br)nc2c1 [Example 100, [2-(2-Bromophenyl)-7-methyl-imidazo[1,2-a]pyridin-3-yl]-cyclohexyl-amine]"
11,63%,"Cc1cc(C)n2c(NC3CCCCC3)c(C3CCCCC3)nc2c1 [Example 77, Cyclohexyl-(2-cyclohexyl-5,7-dimethyl-imidazo[1,2-a]pyridin-3-yl)-amine]"
12,60%,"Cc1cc(C)n2c(NC(C)(C)C)c(-c3ccco3)nc2c1 [Example 25, Tert-butyl-(2-furan-2-yl-5,7-dimethyl-imidazo[1,2-a]pyridin-3-yl)-amine]"
13,52%,"CC(=O)N(c1c(C)nc2cc(C)cc(C)n12)C1CCCCC1 [Example 175, N-cyclohexyl-N-(2,5,7-trimethyl-imidazo[1,2-a]pyridin-3-yl)-acetamide]"
14,63%,"CC(=O)N(c1c(-c2cc3ccccc3o2)nc2cc(C)cc(C)n12)C(C)(C)CC(C)(C)C [Example 217, N-(2-benzofuran-2-yl-5,7-dimethyl-imidazo[1,2-a]pyridin-3-yl)-N-(1,1,3,3-tetramethyl-butyl)-acetamide]"
15,65%,"CCCCN(C(C)=O)c1c(-c2cccc(Cl)c2Cl)nc2ncccn12 [Example 255, N-butyl-N-[2-(2,3-dichloro-phenyl)-imidazo[1,2-a]pyrimidin-3-yl]-acetamide]"
16,62%,"Cc1ccn2c(NC(C)(C)C)c(-c3ccc(C4OCCO4)o3)nc2c1 [Example 65, Tert-butyl-[2-(5-[1,3]dioxolan-2-yl-furan-2-yl)-7-methyl-imidazo[1,2-a]pyridin-3-yl]-amine]"
17,58%,"CCCCNc1c(C2CCCCC2)nc2cc(C)cc(C)n12 [Example 37, Butyl-(2-cyclohexyl-5,7-dimethyl-imidazo[1,2-a]pyridin-3-yl)-amine]"
18,68%,"CC(=O)N(c1c(C)cccc1C)c1c(C(C)(C)C)nc2cc(C)ccn12 [Example 212, N-(2-tert-butyl-7-methyl-imidazo[1,2-a]pyridin-3-yl)-N-(2,6-dimethyl-phenyl)-acetamide]"
19,60%,"Cc1ccn2c(NC(C)(C)CC(C)(C)C)c(-c3cccc(O)c3)nc2c1 [Example 83, 3-[7-Methyl-3-(1,1,3,3-tetramethyl-butylamino)-imidazo[1,2-a]pyridin-2-yl]-phenol]"
20,52%,"CC(=O)N(c1c(-c2ccc(C(=O)O)o2)nc2nc(C)ccn12)C(C)(C)CC(C)(C)C [Example 248, 5-{3-[acetyl-(1,1,3,3-tetramethyl-butyl)-amino]-7-methyl-imidazo[1,2-a]-pyrimidin-2-yl}-furan-2-carboxylic acid]"
21,51%,"CC(=O)N(c1c(-c2cccc(Oc3ccc(Cl)cc3)c2)nc2ccccn12)C1CCCCC1 [Example 269, N-{2-[3-(4-chloro-phenoxy)-phenyl]-imidazo[1,2-a]pyridin-3-yl}-N-cyclohexyl-acetamide]"
22,50%,"Cc1ccn2c(NC(C)(C)CC(C)(C)C)c(-c3cccnc3)nc2n1 [Example 126, (7-Methyl-2-pyridin-3-yl-imidazo[1,2-a]-pyrimidin-3-yl)-(1,1,3,3-tetramethyl-butyl)-amine]"
23,56%,"CC(=O)N(c1c(-c2cccnc2)nc2cc(C)ccn12)C(C)(C)CC(C)(C)C [Example 168, N-(7-methyl-2-pyridin-3-yl-imidazo[1,2-a]pyridin-3-yl)-N-(1,1,3,3-tetramethylbutyl)-acetamide]"
24,61%,"COc1cccc(-c2nc3cc(C)cc(C)n3c2NC(C)(C)C)c1OC [Example 5, Tert-butyl-[2-(2,3-dimethoxy-phenyl)-5,7-dimethyl-imidazo[1,2-a]pyridin-3-yl]-amine]"
25,63%,"CC(=O)N(c1c(C)cccc1C)c1c(-c2cc3ccccc3o2)nc2cc(C)cc(C)n12 [Example 189, N-(2-benzofuran-2-yl-5,7-dimethyl-imidazo[1,2-a]pyridin-3-yl)-N-(2,6-dimethylphenyl)-acetamide]"
